# From patent publication US8598173B2, “1-[(6,7-substituted alkoxyquinoxalinyl)aminocarbonyl]-4-(hetero)arylpiperazine derivatives for treating tumors” (Korea Research Institute of Chemical Technology, priority 2004, dated 2013)
# Where two headings read alike, the source gives them in different places.
# What was measured:
# Type in all cases: cell-based, human
# Conditions in all cases: SRB method, 96 hours incubation
# MDA-MB-231 (breast) = test: Cell growth inhibition assay (SRB), MDA-MB-231
# Method: (§1) OVCAR-3, MCF-7, PC3, HepG2, A549, HT-29 and MKN-45 were grown in RPMI1640 medium (Invitrogen, Carlsbad, Calif.) supplemented with 10% fetal bovine serum (‘FBS’), 1 mM sodium pyruvate, 10 mM HEPES and 100 U/ml penicillin and […] streptomycin (‘P/S’). MDA-MB-231, HCT116, UMRC2, Caki-1, PANC-1 and HEK293 cells were maintained in Dulbecco's modified Eagle's medium (‘DMEM’, Invitrogen) supplemented with 10% FBS, P/S, 10 mM HEPES and 2 mM L-glutamine. HUVEC was maintained in M199 supplemented with basic fibroblast growth factor (‘bFGF’) […] and FBS 20%. All cells were incubated at 37° C. under humidified 5% CO2.
# (§2) The growth inhibition of the substituted quinoxalin-piperazine compounds against a variety of human tumor cells was evaluated. The relative importance of particular substituent groups on the compounds was also studied. The substituted piperazine derivative compounds, prepared as described above, were tested, along with DMSO as a control.
# (§3) The growth inhibition assay of various compounds against human tumor cell lines was performed using the Sulforhodamine B (‘SRB’) method (Skehan et al., J. National Cancer Institute, 1990, 82, 1107-1112). […] Triplicate wells were used for each treatment. The cells were incubated with the various compounds for 96 hours at 37° C. in a humidified 5% CO2 atmosphere. After 96-hour incubation, cells were fixed with 10% trichloroacetic acid (‘TCA’), incubated for 1 hour at 4° C., and washed 3 times with tap water. Subsequently cells were stained with 0.4% sulforhodamine B in 1% acetic acid for 30 minutes, washed 4 times with 1% acetic acid, and air-dried again. After 5 minutes agitation in 10 mM Tris solution, the absorbance of each well was measured at 530 nm using Benchmark Plus Microplate reader (Bio-Rad Laboratories, Hercules, Calif.).
# (§4) To translate the OD530 values into the number of live cells in each well, the OD530 values were compared to those on standard OD530-versus-cell number curves generated for each cell line. The percent survival was calculated using the formula: % Survival=live cell number[test]/live cell number[control]×100
# (§5) The IC50 values were calculated by non-linear regression analysis.
# UMRC2 (kidney) = test: Cell growth inhibition assay (SRB), UMRC2
# Method: as §1, §2, §3, §4, §5
# PANC-1 (pancreas) = test: Cell growth inhibition assay (SRB), PANC-1
# Method: as §1, §2, §3, §4, §5
# [1] = MDA-MB-231, read-out: Inhibition of cell growth (IC50, μM) by quinoxaline-piperazine compounds against human cancer cell lines: MDA-MB-231
# [2] = UMRC2, read-out: Inhibition of cell growth (IC50, μM) by quinoxaline-piperazine compounds against human cancer cell lines: UMRC2
# [3] = PANC-1, read-out: Inhibition of cell growth (IC50, μM) by quinoxaline-piperazine compounds against human cancer cell lines: PANC-1
# [4] = Homo sapiens, MDA-MB-231, read-out: Inhibition of cell growth (IC50, μM) by quinoxaline-piperazine compounds against human cancer cell lines: MDA-MB-231
# [5] = Homo sapiens, UMRC2, read-out: Inhibition of cell growth (IC50, μM) by quinoxaline-piperazine compounds against human cancer cell lines: UMRC2
# [6] = Homo sapiens, PANC-1, read-out: Inhibition of cell growth (IC50, μM) by quinoxaline-piperazine compounds against human cancer cell lines: PANC-1
# [7] = MDA-MB-231 (breast), read-out: IC50, MDA-MB-231
# [8] = UMRC2 (kidney), read-out: IC50, UMRC2
# [9] = PANC-1 (pancreas), read-out: IC50, PANC-1
# [10] = Homo sapiens, MDA-MB-231 (breast), read-out: IC50, MDA-MB-231
# [11] = Homo sapiens, UMRC2 (kidney), read-out: IC50, UMRC2
# [12] = Homo sapiens, PANC-1 (pancreas), read-out: IC50, PANC-1
IC50 (MDA-MB-231 (breast); [4]),IC50 (PANC-1 (pancreas); [6]),IC50 (MDA-MB-231 (breast); [10]),SMILES,IC50 (UMRC2 (kidney); [5]),IC50 (UMRC2 (kidney); [11]),further results
–,–,–,"COc1nc2ccc(F)cc2nc1NC(=O)N1CCN(c2cccc(C(F)(F)F)c2)CC1 [Compound 11, 1-[(6-Fluoro-2-methoxyquinoxalin-3-yl)aminocarbonyl]-4-(3-trifluorotolyl)piperazine]",–,–,IC50 (MDA-MB-231 (breast); [1]): 0.25 µM; IC50 (UMRC2 (kidney); [2]): 0.39 µM; IC50 (PANC-1 (pancreas); [3]): 1.06 µM
0.41 µM,1.66 µM,–,"COc1cccc(N2CCN(C(=O)Nc3nc4cc(Cl)ccc4nc3OC)CC2)c1 [Compound 24, 1-[(6-Chloro-2-methoxyquinoxalin-3-yl)aminocarbonyl]-4-(3-methoxyphenyl)piperazine]",0.68 µM,–,–
0.16 µM,0.95 µM,–,"COc1nc2ccc(Cl)cc2nc1NC(=O)N1CCN(c2cccc(C)c2)CC1 [Compound 29, 1-[(6-Chloro-2-methoxyquinoxalin-3-yl)aminocarbonyl]-4-(3-methylphenyl)piperazine]",0.3 µM,–,–
–,–,–,"COc1nc2ccc(Cl)cc2nc1NC(=O)N1CCN(c2cccc(C(F)(F)F)c2)CC1 [Compound 32, 1-[(6-Chloro-2-methoxyquinoxalin-3-yl)aminocarbonyl]-4-(3-trifluorotolyl)piperazine]",–,–,IC50 (MDA-MB-231 (breast); [1]): 1 µM; IC50 (UMRC2 (kidney); [2]): 1 µM; IC50 (PANC-1 (pancreas); [3]): > 1 µM
0.17 µM,0.93 µM,–,"COc1nc2ccc(Cl)cc2nc1NC(=O)N1CCN(c2cccc(Cl)c2)CC1 [Compound 36, 1-[(6-Chloro-2-methoxyquinoxalin-3-yl)aminocarbonyl]-4-(3-chlorophenyl)piperazine]",0.31 µM,–,–
0.22 µM,1.04 µM,–,"COc1nc2ccc(C)cc2nc1NC(=O)N1CCN(c2cccc(C)c2)CC1 [Compound 50, 1-[(2-Methoxy-6-methylquinoxalin-3-yl)aminocarbonyl]-4-(3-methylphenyl)piperazine]",0.4 µM,–,–
–,–,–,"COc1nc2ccc(C)cc2nc1NC(=O)N1CCN(c2cccc(C(F)(F)F)c2)CC1 [Compound 53, 1-[(2-Methoxy-6-methylquinoxalin-3-yl)aminocarbonyl]-4-(3-trifluorotolyl)piperazine]",–,–,IC50 (MDA-MB-231 (breast); [1]): > 1 µM; IC50 (UMRC2 (kidney); [2]): > 1 µM; IC50 (PANC-1 (pancreas); [3]): > 1 µM
0.14 µM,0.64 µM,–,"COc1nc2ccc(C)cc2nc1NC(=O)N1CCN(c2cccc(Cl)c2)CC1 [Compound 57, 1-[(2-Methoxy-6-methylquinoxalin-3-yl)aminocarbonyl]-4-(3-chlorophenyl)piperazine]",0.24 µM,–,–
> 1 µM,> 1 µM,–,"COc1cccc(N2CCN(C(=O)Nc3nc4cc(OC)ccc4nc3OC)CC2)c1 [Compound 66, 1-[(2,6-Dimethoxyquinoxalin-3-yl)aminocarbonyl]-4-(3-methoxyphenyl)piperazine]",> 1 µM,–,–
0.4 µM,1.43 µM,–,"COc1ccc2nc(OC)c(NC(=O)N3CCN(c4cccc(C)c4)CC3)nc2c1 [Compound 71, 1-[(2,6-Dimethoxyquinoxalin-3-yl)aminocarbonyl]-4-(3-methylphenyl)piperazine]",0.63 µM,–,–
> 1 µM,> 1 µM,–,"COc1ccc2nc(OC)c(NC(=O)N3CCN(c4cccc(Cl)c4)CC3)nc2c1 [Compound 78, 1-[(2,6-Dimethoxyquinoxalin-3-yl)aminocarbonyl]-4-(3-chlorophenyl)piperazine]",> 1 µM,–,–
> 1 µM,> 1 µM,–,"COc1cccc(N2CCN(C(=O)Nc3nc4ccc(F)cc4nc3OC)CC2)c1 [Compound 87, 1-[(6-Fluoro-3-methoxyquinoxalin-2-yl)aminocarbonyl]-4-(3-methoxyphenyl)piperazine]",> 1 µM,–,–
0.21 µM,0.95 µM,–,"COc1nc2cc(F)ccc2nc1NC(=O)N1CCN(c2cccc(C)c2)CC1 [Compound 92, 1-[(6-Fluoro-3-methoxyquinoxalin-2-yl)aminocarbonyl]-4-(3-methylphenyl)piperazine]",0.37 µM,–,–
–,–,–,"COc1nc2cc(F)ccc2nc1NC(=O)N1CCN(c2cccc(C(F)(F)F)c2)CC1 [Compound 95, 1-[(6-Fluoro-3-methoxyquinoxalin-2-yl)aminocarbonyl]-4-(3-trifluorotoly)piperazine]",–,–,IC50 (MDA-MB-231 (breast); [7]): > 1 µM; IC50 (UMRC2 (kidney); [8]): > 1 µM; IC50 (PANC-1 (pancreas); [9]): > 1 µM
–,–,> 1 µM,"COc1cccc(N2CCN(C(=O)Nc3nc4ccc(Cl)cc4nc3OC)CC2)c1 [Compound 108, 1-[(6-Chloro-3-methoxyquinoxalin-2-yl)aminocarbonyl]-4-(3-methoxyphenyl)piperazine]",–,> 1 µM,IC50 (PANC-1 (pancreas); [12]): > 1 µM
–,–,0.3 µM,"COc1nc2cc(Cl)ccc2nc1NC(=O)N1CCN(c2cccc(C)c2)CC1 [Compound 113, 1-[(6-Chloro-3-methoxyquinoxalin-2-yl)aminocarbonyl]-4-(3-methylphenyl)piperazine]",–,0.4 µM,IC50 (PANC-1 (pancreas); [12]): 0.61 µM
–,–,–,"COc1nc2cc(Cl)ccc2nc1NC(=O)N1CCN(c2cccc(C(F)(F)F)c2)CC1 [Compound 116, 1-[(6-Chloro-3-methoxyquinoxalin-2-yl)aminocarbonyl]-4-(3-trifluorotolyl)piperazine]",–,–,IC50 (MDA-MB-231 (breast); [7]): > 1 µM; IC50 (UMRC2 (kidney); [8]): > 1 µM; IC50 (PANC-1 (pancreas); [9]): > 1 µM
–,–,> 1 µM,"COc1cccc(N2CCN(C(=O)Nc3nc4ccc(C)cc4nc3OC)CC2)c1 [Compound 129, 1-[(3-Methoxy-6-methylquinoxalin-2-yl)aminocarbonyl]-4-(3-methoxyphenyl)piperazine]",–,> 1 µM,IC50 (PANC-1 (pancreas); [12]): > 1 µM
–,–,0.26 µM,"COc1nc2cc(C)ccc2nc1NC(=O)N1CCN(c2cccc(C)c2)CC1 [Compound 134, 1-[(3-Methoxy-6-methylquinoxalin-2-yl)aminocarbonyl]-4-(3-methylphenyl)piperazine]",–,0.26 µM,–
–,–,0.25 µM,"COc1nc2cc(C)ccc2nc1NC(=O)N1CCN(c2cccc(Cl)c2)CC1 [Compound 141, 1-[(3-Methoxy-6-methylquinoxalin-2-yl)aminocarbonyl]-4-(3-chlorophenyl)piperazine]",–,0.25 µM,–
–,–,≥ 1 µM,"COc1cccc(N2CCN(C(=O)Nc3nc4ccc(OC)cc4nc3OC)CC2)c1 [Compound 150, 1-[(3,6-Dimethoxyquinoxalin-2-yl)aminocarbonyl]-4-(3-methoxyphenyl)piperazine]",–,> 1 µM,IC50 (PANC-1 (pancreas); [12]): > 1 µM
–,–,0.23 µM,"COc1ccc2nc(NC(=O)N3CCN(c4cccc(C)c4)CC3)c(OC)nc2c1 [Compound 155, 1-[(3,6-Dimethoxyquinoxalin-2-yl)aminocarbonyl]-4-(3-methylphenyl)piperazine]",–,0.39 µM,IC50 (PANC-1 (pancreas); [12]): 0.96 µM
–,–,–,"COc1ccc2nc(NC(=O)N3CCN(c4cccc(C(F)(F)F)c4)CC3)c(OC)nc2c1 [Compound 158, 1-[(3,6-Dimethoxyquinoxalin-2-yl)aminocarbonyl]-4-(3-trifluorotoly)piperazine]",–,–,IC50 (MDA-MB-231 (breast); [7]): > 1 µM; IC50 (UMRC2 (kidney); [8]): > 1 µM; IC50 (PANC-1 (pancreas); [9]): > 1 µM
–,–,0.23 µM,"COc1ccc2nc(NC(=O)N3CCN(c4cccc(Cl)c4)CC3)c(OC)nc2c1 [Compound 162, 1-[(3,6-Dimethoxyquinoxalin-2-yl)aminocarbonyl]-4-(3-chlorophenyl)piperazine]",–,0.29 µM,IC50 (PANC-1 (pancreas); [12]): 0.46 µM
–,–,> 1 µM,"COc1ccc2nc(NC(=O)N3CCN(c4ccccn4)CC3)c(OC)nc2c1 [Compound 167, 1-[(3,6-Dimethoxyquinoxalin-2-yl)aminocarbonyl]-4-(2-pyridyl)piperazine]",–,> 1 µM,IC50 (PANC-1 (pancreas); [12]): > 1 µM
